“Also recorded” adds a separate entry of the source.
Experiments:
[1] = system: photoreceptor cells in the outer nuclear layer (ONL); assay: Retinal explant culture, SNP induced apoptosis detected by TUNEL; type: cell-based, C57BL/6 mice
Description: Retinal explant culture: Eyes from postnatal day 10, C57BL/6 mice were removed and cleaned with 70% ethanol. The anterior segment, vitreous body, and sclera were removed and the retina mounted on Millicell nitrocellulose inserts (Millipore, Billerica, Mass.) photoreceptor-side down. Explants were cultured without retinal pigment epithelium (RPE) in 1.2 ml of R16 specialised media (from Dr. P. A. Ekstrom, Wallenberg Retina Centre, Lund University, Lund, Sweden) without additional serum. Treated explants were cultured in medium containing 300 μM of the nitric oxide donor SNP (sodium nitroprusside) for 24 h. Pre-treatment with norgestrel was for 1 hour.
(§1) Apoptosis detection by Terminal deoxynucleotidyl transferase-mediated biotinylated UTP nick end labeling (TUNEL): Retinal explants were fixed in 10% neutral buffered formalin overnight at 4° C., followed by cryoprotection in 25% sucrose overnight at 4° C. Frozen sections (7 μm) were incubated with terminal deoxynucleotidyl transferase (MSC, Dublin, Republic of Ireland) and fluorescein-12-dUTP (Roche, Lewes, UK) according to manufacturers' instructions at 37° C. for 1 h. Sections were mounted and viewed under a fluorescence microscope (Leica DM LB2; Leica, Nussloch, Germany) using an FITC filter.

[2] = system: photoreceptor cells; assay: Light damage model in vivo, TUNEL staining of ONL; set-up: species or system albino balb/c mice
Description: as §1
Light damage model: Balb/c mice were dark adapted for 18 h prior to exposure to constant light. Mice were injected intraperitoneally with 100 mg/kg of norgestrel 1 hour prior to light damage. Immediately prior to light exposure their pupils were dilated with 0.5% cyclopentolate under red light. Retinal light damage was induced by exposure to 2 h of cool white fluorescent light at an illumination of 5000 lux. Following exposure to constant light, animals were placed in the dark for 24 h then killed immediately by cervical dislocation.
TUNEL staining was performed as described above.

[3] = system: photoreceptor cells in the outer nuclear layer (ONL); assay: rd10 model of chronic retinal degeneration; type: in vivo, rd10 mouse
Description: Peanut agglutinin (PNA) staining: Eyes were fixed in 10% neutral buffered formalin overnight at 4° C., followed by cryoprotection in 25% sucrose overnight at 4° C. Frozen sections (7 μm) were blocked with 0.1% bovine serum albumin (BSA) in 0.1% tween/PBS for 30 minutes at room temperature. Sections were incubated with rhodamine conjugated PNA (Invitrogen, Dun Laoghaire, Ireland) for 20 minutes at room temperature as per manufacturers' instructions. Sections were mounted and viewed under a fluorescence microscope (Leica DM LB2; Leica, Nussloch, Germany) using a TRITC filter. Immunofluorescence: Eyes were fixed in 10% neutral buffered formalin overnight at 4° C., followed by cryoprotection in 25% sucrose overnight at 4° C. Frozen sections (7 μm) were blocked with 0.1% bovine serum albumin (BSA) in 0.1% tween/PBS for 1 hour at room temperature. Sections were incubated with anti-rhodopsin antibody (LAB VISION Corporation, Fremont, Calif., USA) overnight at 4° C. Sections were washed and incubated with FITC conjugated secondary mouse antibody (Dako, Glostrup, Denmark) for 1 hour at room temperature. Following further washes, sections were mounted and viewed under a fluorescence microscope (Leica DM LB2; Leica, Nussloch, Germany) using a FITC filter. […] It is a better model of the slow progression of typical human autosomal recessive RP than the acute light model as photoreceptor cells are lost over a period of weeks rather than days. Loss of photoreceptors in the rd10 mouse begins at approximately 2 weeks of age, with the peak of photoreceptor death occurring at postnatal day (P) 25.

[4] = compared to uninjected or vehicle injected controls

C#CC1(O)CC[C@H]2[C@@H]3CCC4=CC(=O)CC[C@@H]4[C@H]3CC[C@@]21CC (mixture of isomers) [norgestrel]
protection of photoreceptors from SNP induced apoptosis (TUNEL) ([1]; ex vivo retinal explants, 300 μM SNP for 24 h, 1 hour norgestrel pre-treatment, increasing concentrations): protected from SNP induced apoptosis; also recorded: protects photoreceptive cells from SNP induced cell death
toxicity to retinal cells ([1]; retinal explants, norgestrel alone at the highest concentration used): not toxic to retinal cells
protection of photoreceptors from light induced retinal damage / apoptosis ([2]; 100 mg/kg IP, 1 hour before 2 h light damage): protects from the retinal damage observed; also recorded: Photoreceptors are protected
duration of protection after a single injection ([2]; 100 mg/kg, single injection, post light damage): 72 h
protection from light induced cell death (TUNEL positive cells) ([2]; central retina, 24 hours, 100 mg/kg): approx 70%
protection of layers of photoreceptor nuclei, central retina ([3]; 100 mg/kg IP every second day P18-P30, central retina): 1-2 layers
protection of layers of photoreceptor nuclei, peripheral retina ([3]; 100 mg/kg IP every second day P18-P30, peripheral retina): 4-5 layers
protection of layers of photoreceptor nuclei in the ONL, central retina ([3]; 100 mg/kg injected daily, P25, central retina): 3-4 layers
protection of layers in the ONL, peripheral retina ([3]; 100 mg/kg injected daily, P25, peripheral retina): 3-4 layers
degeneration of central retina, photoreceptor nuclei remaining at P25 and P30 versus vehicle ([3]; central retina, P25 and P30): degenerates more slowly
PNA staining (cone photoreceptors) in the ONL [3, 4]: more cone cells are found
rhodopsin immunofluorescent staining (rod photoreceptors) in the ONL [3, 4]: more rhodopsin positive cells remain
degeneration of peripheral retina between P25 and P30 versus vehicle ([3]; peripheral retina, P25 to P30): degeneration of the peripheral retina virtually ceases
protection with injection every second day versus daily ([3]; rd10, P25, every second day compared with daily): equally as protected
